Values quoted from earlier work as cited in patent US20120101165A1, “Urea Compositions With Cooling Effect” (priority 2007, published 2012).
Like-named read-outs stand apart in the source and are kept apart here.

Tests used:
[1] = 20% urea solution
[2] = not given; remark: listed apart in the source
[3] = endothermic

solubility in water (at 20° C.): 108 g/100 mL
solubility in water (at 100° C.): 733 g/100 mL
pH after storage ([1]; after 11 months at room temperature): 8.8
initial pH ([1]; initial): about 7.4
critical relative humidity ([2]; at 20° C.): about 81%
critical relative humidity ([2]; at 30° C.): about 73%
heat of solution in water [3]: about −57.8 cal/g
Compound: NC(N)=O [urea, diaminomethanal]
